According to ChEMBL document CHEMBL1157971, “Euphoportlandols A and B, tetracylic diterpene polyesters from Euphorbia portlandica and their anti-MDR effects in cancer cells” (J Nat Prod, 2006):

Tests used:
Assay type in all cases: cell-based
[1] = target: T1, ATP-dependent translocase ABCB1 (Homo sapiens, UniProt P08183); experiment: Inhibition of human MDR1-mediated rhodamine efflux in mouse L5178 cells assessed as mean fluorescence intensity at 40 ug/mL by flow cytometry
[2] = target: T1, ATP-dependent translocase ABCB1; experiment: Inhibition of human MDR1-mediated rhodamine efflux in mouse L5178 cells assessed as fluorescence activity ratio at 40 ug/mL by flow cytometry relative to untreated control
[3] = target: T1, ATP-dependent translocase ABCB1; experiment: Inhibition of human MDR1-mediated rhodamine efflux in mouse L5178 cells assessed as mean fluorescence intensity at 4 ug/mL by flow cytometry
[4] = target: T1, ATP-dependent translocase ABCB1; experiment: Inhibition of human MDR1-mediated rhodamine efflux in mouse L5178 cells assessed as fluorescence activity ratio at 4 ug/mL by flow cytometry relative to untreated control

T1 sequence (P08183 whole entry): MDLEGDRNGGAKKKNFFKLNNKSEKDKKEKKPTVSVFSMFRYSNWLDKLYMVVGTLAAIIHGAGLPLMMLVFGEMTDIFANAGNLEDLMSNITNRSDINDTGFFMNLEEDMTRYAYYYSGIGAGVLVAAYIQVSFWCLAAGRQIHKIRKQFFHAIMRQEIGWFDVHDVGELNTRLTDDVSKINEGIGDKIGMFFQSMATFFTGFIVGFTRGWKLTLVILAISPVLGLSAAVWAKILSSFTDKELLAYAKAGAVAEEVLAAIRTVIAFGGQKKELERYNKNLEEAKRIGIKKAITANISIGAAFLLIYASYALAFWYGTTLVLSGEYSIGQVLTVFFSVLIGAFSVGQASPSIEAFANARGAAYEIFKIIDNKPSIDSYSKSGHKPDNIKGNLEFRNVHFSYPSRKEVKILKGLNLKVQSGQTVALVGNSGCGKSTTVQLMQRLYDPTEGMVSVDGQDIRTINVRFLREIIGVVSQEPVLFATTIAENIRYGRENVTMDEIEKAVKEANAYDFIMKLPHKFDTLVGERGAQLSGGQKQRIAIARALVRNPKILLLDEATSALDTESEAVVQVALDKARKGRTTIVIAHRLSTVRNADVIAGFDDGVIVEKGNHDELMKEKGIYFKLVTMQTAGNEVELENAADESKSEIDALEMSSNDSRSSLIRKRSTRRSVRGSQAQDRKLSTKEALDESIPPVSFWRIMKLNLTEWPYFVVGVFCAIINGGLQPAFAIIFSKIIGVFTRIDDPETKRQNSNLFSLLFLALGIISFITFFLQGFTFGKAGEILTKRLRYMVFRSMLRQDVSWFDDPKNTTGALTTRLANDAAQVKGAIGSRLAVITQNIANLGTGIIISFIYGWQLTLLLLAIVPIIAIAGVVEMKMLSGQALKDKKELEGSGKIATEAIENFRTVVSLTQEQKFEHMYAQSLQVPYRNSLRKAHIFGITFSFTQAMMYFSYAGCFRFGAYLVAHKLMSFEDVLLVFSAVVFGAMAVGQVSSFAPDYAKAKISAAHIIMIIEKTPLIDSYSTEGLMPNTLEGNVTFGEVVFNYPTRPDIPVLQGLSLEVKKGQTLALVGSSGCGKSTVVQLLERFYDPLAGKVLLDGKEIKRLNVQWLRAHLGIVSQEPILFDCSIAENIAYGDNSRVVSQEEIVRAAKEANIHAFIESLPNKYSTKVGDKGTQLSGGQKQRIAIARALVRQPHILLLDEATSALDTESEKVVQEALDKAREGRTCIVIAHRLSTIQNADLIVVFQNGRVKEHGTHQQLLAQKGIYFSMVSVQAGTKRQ

Structure (SMILES)	Flu intensity [1]	Ratio [2]	Flu intensity [3]	Ratio [4]
CC(=O)OC1[C@]2(O)CC3=C([C@H](OC(C)=O)C(C)(C)C3=O)[C@@]1(C)[C@@H](OC(C)=O)[C@@]1(O)C[C@H](C)[C@H](OC(=O)c3ccccc3)[C@@H]1[C@H]2OC(C)=O (stereo partly drawn) [EUPHOPORTLANDOL A]	880.2	40.3	49.8	2.3
CC(=O)OC1[C@@]2(C)[C@@H]3[C@@H](C[C@]1(O)[C@H](OC(C)=O)[C@H]1[C@@H](OC(=O)c4ccccc4)[C@@H](C)C[C@]1(O)[C@@H]2OC(C)=O)C(=O)C(C)(C)[C@H]3OC(C)=O (stereo partly drawn) [EUPHOPORTLANDOL B]	670.5	30.7	30.8	1.4
